In patent US8912329B2 (priority 2009, dated 2014):

How the values were obtained:
[1] = test system: Mycobacterium tuberculosis laboratory strain H37Rv; assay: Growth inhibition / drug susceptibility testing of M. tuberculosis with MGIT 960 system, compounds combined with ethionamide; format: cell-based; parameters: key to growth inhibition of M. tuberculosis H37Rv (R/I/S): R: Resistance, no effect of combinatorial drug application; I: intermediate; S: sensitive; conditions: for growth inhibitory effect of compound alone on M. tuberculosis H37Rv: without ethionamide; for growth of M. tuberculosis H37Rv in the presence of sub-inhibitory ethionamide concentrations: ethionamide 0.16 and 5 μg/ml, 0.5 to 40.5 μMol compound
[2] = biological target: EthR-VP16 (Mycobacterium bovis, UniProt Q7TVI1); assay: cell-based; parameters: species or system M. bovis; conditions: 48 h, read-out: % EthR activity (w/o = 100%); ± std. dev. of the mean (n = 3)
EthR-VP16, sequence (Q7TVI1 whole entry, looked up): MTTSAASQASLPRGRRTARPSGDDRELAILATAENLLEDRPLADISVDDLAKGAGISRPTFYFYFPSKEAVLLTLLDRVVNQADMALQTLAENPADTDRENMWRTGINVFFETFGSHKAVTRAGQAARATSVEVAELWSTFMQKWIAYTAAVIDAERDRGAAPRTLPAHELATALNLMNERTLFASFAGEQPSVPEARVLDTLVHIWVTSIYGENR

[3] = Example compound 0.5 μM + ethionamide 0.16 μg/ml
[4] = Example compound 0.5 μM + ethionamide 0.31 μg/ml
[5] = Example compound 0.5 μM + ethionamide 0.625 μg/ml
[6] = Example compound 0.5 μM + ethionamide 1.25 μg/ml
[7] = Example compound 0.5 μM + ethionamide 2.5 μg/ml
[8] = Example compound 0.5 μM + ethionamide 5 μg/ml
[9] = Example compound 0.5 μM, ethionamide 0 μg/ml
[10] = Example compound 1.5 μM + ethionamide 0.16 μg/ml
[11] = Example compound 1.5 μM + ethionamide 0.31 μg/ml
[12] = Example compound 1.5 μM + ethionamide 0.625 μg/ml
[13] = Example compound 1.5 μM + ethionamide 1.25 μg/ml
[14] = Example compound 1.5 μM + ethionamide 2.5 μg/ml
[15] = Example compound 1.5 μM + ethionamide 5 μg/ml
[16] = Example compound 1.5 μM, ethionamide 0 μg/ml
[17] = Example compound 4.5 μM + ethionamide 0.16 μg/ml
[18] = Example compound 4.5 μM + ethionamide 0.31 μg/ml
[19] = Example compound 4.5 μM + ethionamide 0.625 μg/ml
[20] = Example compound 4.5 μM + ethionamide 1.25 μg/ml
[21] = Example compound 4.5 μM + ethionamide 2.5 μg/ml
[22] = Example compound 4.5 μM + ethionamide 5 μg/ml
[23] = Example compound 4.5 μM, ethionamide 0 μg/ml
[24] = Example compound 13.5 μM + ethionamide 0.16 μg/ml
[25] = Example compound 13.5 μM + ethionamide 0.31 μg/ml
[26] = Example compound 13.5 μM + ethionamide 0.625 μg/ml
[27] = Example compound 13.5 μM + ethionamide 1.25 μg/ml
[28] = Example compound 13.5 μM + ethionamide 2.5 μg/ml
[29] = Example compound 13.5 μM + ethionamide 5 μg/ml
[30] = Example compound 13.5 μM, ethionamide 0 μg/ml
[31] = Example compound 40.5 μM + ethionamide 0.16 μg/ml
[32] = Example compound 40.5 μM + ethionamide 0.31 μg/ml
[33] = Example compound 40.5 μM + ethionamide 0.625 μg/ml
[34] = Example compound 40.5 μM + ethionamide 1.25 μg/ml
[35] = Example compound 40.5 μM + ethionamide 2.5 μg/ml
[36] = Example compound 40.5 μM + ethionamide 5 μg/ml
[37] = Example compound 40.5 μM, ethionamide 0 μg/ml

O=C(CCc1ccccc1)N1CCC(c2ccccc2)C1 (stereo not drawn) [Example 16, 3-Phenyl-1-(3-phenylpyrrolidin-1-yl)propan-1-one]
growth inhibition of M. tuberculosis H37Rv (R/I/S) [1, 3]: R | growth inhibition of M. tuberculosis H37Rv (R/I/S) [1, 4]: R | growth inhibition of M. tuberculosis H37Rv (R/I/S) [1, 5]: I | growth inhibition of M. tuberculosis H37Rv (R/I/S) [1, 6]: S | growth inhibition of M. tuberculosis H37Rv (R/I/S) [1, 7]: S | growth inhibition of M. tuberculosis H37Rv (R/I/S) [1, 8]: S | growth inhibition of M. tuberculosis H37Rv (R/I/S) [1, 9]: R | growth inhibition of M. tuberculosis H37Rv (R/I/S) [1, 10]: R | growth inhibition of M. tuberculosis H37Rv (R/I/S) [1, 11]: I | growth inhibition of M. tuberculosis H37Rv (R/I/S) [1, 12]: S | growth inhibition of M. tuberculosis H37Rv (R/I/S) [1, 13]: S | growth inhibition of M. tuberculosis H37Rv (R/I/S) [1, 14]: S | growth inhibition of M. tuberculosis H37Rv (R/I/S) [1, 15]: S | growth inhibition of M. tuberculosis H37Rv (R/I/S) [1, 16]: R | growth inhibition of M. tuberculosis H37Rv (R/I/S) [1, 17]: R | growth inhibition of M. tuberculosis H37Rv (R/I/S) [1, 18]: I | growth inhibition of M. tuberculosis H37Rv (R/I/S) [1, 19]: S | growth inhibition of M. tuberculosis H37Rv (R/I/S) [1, 20]: S | growth inhibition of M. tuberculosis H37Rv (R/I/S) [1, 21]: S | growth inhibition of M. tuberculosis H37Rv (R/I/S) [1, 22]: S | growth inhibition of M. tuberculosis H37Rv (R/I/S) [1, 23]: R | growth inhibition of M. tuberculosis H37Rv (R/I/S) [1, 24]: I | growth inhibition of M. tuberculosis H37Rv (R/I/S) [1, 25]: S | growth inhibition of M. tuberculosis H37Rv (R/I/S) [1, 26]: S | growth inhibition of M. tuberculosis H37Rv (R/I/S) [1, 27]: S | growth inhibition of M. tuberculosis H37Rv (R/I/S) [1, 28]: S | growth inhibition of M. tuberculosis H37Rv (R/I/S) [1, 29]: S | growth inhibition of M. tuberculosis H37Rv (R/I/S) [1, 30]: R | growth inhibition of M. tuberculosis H37Rv (R/I/S) [1, 31]: I | growth inhibition of M. tuberculosis H37Rv (R/I/S) [1, 32]: I | growth inhibition of M. tuberculosis H37Rv (R/I/S) [1, 33]: S | growth inhibition of M. tuberculosis H37Rv (R/I/S) [1, 34]: S | growth inhibition of M. tuberculosis H37Rv (R/I/S) [1, 35]: S | growth inhibition of M. tuberculosis H37Rv (R/I/S) [1, 36]: S | growth inhibition of M. tuberculosis H37Rv (R/I/S) [1, 37]: R | growth inhibitory effect of compound alone on M. tuberculosis H37Rv [1]: do not show any growth inhibitory effect | growth of M. tuberculosis H37Rv in the presence of sub-inhibitory ethionamide concentrations [1]: dose-dependently inhibited | remaining activity at 0.5 µM [2]: 28.3 ± 1.26% | remaining activity at 1.5 µM [2]: 27.2 ± 0.46% | remaining activity at 3 µM [2]: 19.9 ± 0.43% | remaining activity at 6 µM [2]: 13.5 ± 2.96% | remaining activity at 15 µM [2]: 11.8 ± 2.6% | remaining activity at 30 µM [2]: 11.4 ± 2.51% | remaining activity at 60 µM [2]: 2.82 ± 0.62% | remaining activity at 300 µM [2]: 0.85 ± 0.18%

O=C(Cc1ccccc1)N1CCC(c2ccccc2)C1 (stereo not drawn) [Example 17, 2-Phenyl-1-(3-phenylpyrrolidin-1-yl)ethan-1-one]
growth inhibition of M. tuberculosis H37Rv (R/I/S) [1, 3]: R | growth inhibition of M. tuberculosis H37Rv (R/I/S) [1, 4]: R | growth inhibition of M. tuberculosis H37Rv (R/I/S) [1, 5]: R | growth inhibition of M. tuberculosis H37Rv (R/I/S) [1, 6]: R | growth inhibition of M. tuberculosis H37Rv (R/I/S) [1, 7]: I | growth inhibition of M. tuberculosis H37Rv (R/I/S) [1, 8]: S | growth inhibition of M. tuberculosis H37Rv (R/I/S) [1, 9]: R | growth inhibition of M. tuberculosis H37Rv (R/I/S) [1, 10]: R | growth inhibition of M. tuberculosis H37Rv (R/I/S) [1, 11]: R | growth inhibition of M. tuberculosis H37Rv (R/I/S) [1, 12]: R | growth inhibition of M. tuberculosis H37Rv (R/I/S) [1, 13]: I | growth inhibition of M. tuberculosis H37Rv (R/I/S) [1, 14]: S | growth inhibition of M. tuberculosis H37Rv (R/I/S) [1, 15]: S | growth inhibition of M. tuberculosis H37Rv (R/I/S) [1, 16]: R | growth inhibition of M. tuberculosis H37Rv (R/I/S) [1, 17]: R | growth inhibition of M. tuberculosis H37Rv (R/I/S) [1, 18]: R | growth inhibition of M. tuberculosis H37Rv (R/I/S) [1, 19]: R | growth inhibition of M. tuberculosis H37Rv (R/I/S) [1, 20]: I | growth inhibition of M. tuberculosis H37Rv (R/I/S) [1, 21]: S | growth inhibition of M. tuberculosis H37Rv (R/I/S) [1, 22]: S | growth inhibition of M. tuberculosis H37Rv (R/I/S) [1, 23]: R | growth inhibition of M. tuberculosis H37Rv (R/I/S) [1, 24]: R | growth inhibition of M. tuberculosis H37Rv (R/I/S) [1, 25]: R | growth inhibition of M. tuberculosis H37Rv (R/I/S) [1, 26]: I | growth inhibition of M. tuberculosis H37Rv (R/I/S) [1, 27]: I | growth inhibition of M. tuberculosis H37Rv (R/I/S) [1, 28]: S | growth inhibition of M. tuberculosis H37Rv (R/I/S) [1, 29]: S | growth inhibition of M. tuberculosis H37Rv (R/I/S) [1, 30]: R | growth inhibition of M. tuberculosis H37Rv (R/I/S) [1, 31]: R | growth inhibition of M. tuberculosis H37Rv (R/I/S) [1, 32]: R | growth inhibition of M. tuberculosis H37Rv (R/I/S) [1, 33]: S | growth inhibition of M. tuberculosis H37Rv (R/I/S) [1, 34]: S | growth inhibition of M. tuberculosis H37Rv (R/I/S) [1, 35]: S | growth inhibition of M. tuberculosis H37Rv (R/I/S) [1, 36]: S | growth inhibition of M. tuberculosis H37Rv (R/I/S) [1, 37]: R | growth inhibitory effect of compound alone on M. tuberculosis H37Rv [1]: do not show any growth inhibitory effect | growth of M. tuberculosis H37Rv in the presence of sub-inhibitory ethionamide concentrations [1]: dose-dependently inhibited | remaining activity at 0.5 µM [2]: 38.5 ± 8.47% | remaining activity at 1.5 µM [2]: 35.5 ± 7.81% | remaining activity at 3 µM [2]: 22.5 ± 4.94% | remaining activity at 6 µM [2]: 16.3 ± 3.58% | remaining activity at 15 µM [2]: 14.2 ± 3.13% | remaining activity at 30 µM [2]: 11.5 ± 8.52% | remaining activity at 60 µM [2]: 1.86 ± 0.4% | remaining activity at 300 µM [2]: 0.83 ± 0.18%
